Measured values: patent publication US8329678B1, “Antiinflammatory compound” (priority 2011, dated 2012)

Key:
[1] = test system: PHA-activated T-cell proliferation; experiment: PHA-activated T-cell proliferation assay (3H-thymidine incorporation); assay type: cell-based, human
Protocol: The T-cell proliferation assay was performed as described by Nielson et al. (19). In this assay, isolated lymphocytes were stimulated by adding the phytohemagglutinin (PHA) in culture. The rate of proliferation and survival was measured by radiolabelled thymidine incorporation method. The lymphocytes were isolated as described by Boyum (20). A 50 μL of cell suspension (10^6/mL) was added to each well of a 96-well round bottom tissue culture plate. 50 μL of PHA was added in each well from the working solution (20 μg/mL) to have final concentration 5 μg/mL. The final volume was adjusted to 200 μL in each well by adding complete RPMI media. The plates were incubated at 37° C. for 72 hours (90% humidity, 5% CO2/air). Methyl-^3H thymidine (Amersham Pharmacia Biotech) 0.5 μCi was added in each well and incubated for further 18 hours. Cells were harvested on a filter mat (Type G-7) using cell harvester (INOTECH IH-280, Switzerland) and the radioactivity (CPM) was measured using a β-scintillation counter (LS 6500, Beckman Coulter, USA). (FIG. 2A)

[2] = test system: IL-2 production from peripheral blood mononuclear cells; experiment: IL-2 cytokine production by PHA-activated PBMC (ELISA); assay type: cell-based, human
Protocol: IL-2 cytokine was produce from peripheral blood mononuclear cells (PBMC). IL-2 cytokine production by PHA activated cells in the presence or absence of test compounds was studied by ELISA using the human cytokine kit (Diaclone, Besancon Cedex France). Briefly, freshly prepared mononuclear cells (10^5/well) were cultured in 96-well microtiter flat bottom plate in the presence or absence of 5 μg/mL PHA. Four different concentrations (10.33-331.13 μM/mL) of compounds, along with PHA, were used in this assay. The culture plate was incubated at 37° C. for 18 h. Then the supernatant was collected and analyzed for IL-2 cytokine production following kit manufacturer instructions.

[3] = test system: human lung cancer cell line (NCI-H460); experiment: Sulforhodamine B (SRB) growth inhibition assay; assay type: cell-based; settings: for TGI (μM), could not be determined: NCI-H460, maximum dose 100 μM
Protocol: The sulforhodamine B (SRB) protein-staining assay was employed for measurement of in vitro growth inhibition and cytotoxicity (21) The appropriate cell density (cells/well) of NCI-H460 cells (1×10^4) was added in 96-well plates. The cell density used was dependent on the doubling time of the cell line leading to the formation of monolayer. After 24 h incubation, different doses of Compounds 1-3 were added and incubated for further 48 h. This was followed by fixation of cells with ice-cold trichloroacetic acid (50 μl, 50%) at room temperature for 30 min. The plates were carefully washed five times with distilled water, and left for overnight drying in air. Sulforhodamine B dye (100 μl, 0.4% in 1% acetic acid) was introduced in each well and after 30 min residual dye was removed using acetic acid (1%) and air-dried overnight. The bound SRB dye was solubilized in Tris-base solution (100 μl, 10 mM) with gentle shaking on a plate-shaker for 5 min prior to optical density (OD) measurements at 545 nm in a plate reader. Drug concentrations causing growth inhibition (GI50) of 50% cells were calculated from dose response curves and total growth inhibition of Compound 2 was also evaluated.

whole blood phagocytes = experiment: Luminol-enhanced chemiluminescence oxidative burst assay, whole blood; assay type: cell-based, human
Source text: (§1) Heparinized blood was obtained by vein puncture aseptically from healthy volunteers (25-38 years age). The buffy coat containing PMNs was collected by dextran sedimentation and the cells were isolated after the LSM density gradient centrifugation from the tube base. Cells were washed twice and suspended in Hank's Balance Salt Solution (Ca^2+ and Mg^2+ free) (HBSS^−−), pH 7.4. Neutrophils were purified from RBCs contamination using hypotonic solution. Cells were adjusted to their required concentration using Hank's Balance Salt Solution containing Ca^2+ and Mg^2+ (HBSS++)
(§2) Luminol-enhanced chemiluminescence assay was performed as described by Helfand et al. (17), and Haklar et al. (18) with some modifications. Briefly, 25 μL diluted whole blood (1:200 dilution in sterile HBSS^++) or 25 μL of PMNs (1×10^6) cells were incubated with 25 μL of serially diluted compounds with concentration ranges between 3.2-50 mg/mL. Tests were performed in white 96-well plates, which were incubated at 37° C. for 30 minutes in the thermostated chamber of the luminometer. Opsonized zymosan-A, 25 μL, followed by 25 μL luminol (7×10^−5M) along with HBSS^++ was added to each well to obtain a 100 μL volume/well. […] Chemiluminescence peaks were recorded with the Luminometer. Results were monitored as chemiluminescence relative light units (RLU) with peak and total integral values.

[4] = test system: isolated polymorphoneutrophils (PMNs); experiment: Luminol-enhanced chemiluminescence oxidative burst assay, isolated PMNs; assay type: cell-based, human
Source text: as §1, §2

Row | Compound | effect on T-cell proliferation [1] | effect on IL-2 production [2] | anticancer activity against NCI-H460 [3] | TGI (μM), could not be determined [3] | effect on ROS production, whole blood phagocytes (whole blood phagocytes) | effect on ROS production, isolated neutrophils [4] | growth inhibition of cancer cells at 100 μM ([3]; 100 μM)
1 | C[C@]12C=CC(=O)C=C1CC[C@@H]1[C@@H]2CC[C@@]2(C)[C@H]1CC[C@]2(C)O [Compound 1, dianabol, reference compound] | did not show any significant effect | did not show any significant effect | showed anticancer activity | ND (Values could not be determined indicates <50% inhibition of cell growth at maximum dose (100 μM) tested.) | – | – | –
2 | C[C@]12C=CC(=O)C[C@@H]1CC[C@@H]1[C@@H]2CC[C@@]2(C)[C@H]1CC[C@]2(C)O [Compound 2, 17β-hydroxy-17α-methyl-5α-androst-1-en-3-one] | – | – | showed anticancer activity | – | did not result in any significant effect | did not result in any significant effect | –
3 | C[C@]12CCC(=O)C[C@@H]1CC[C@@H]1[C@@H]2CC[C@@]2(C)[C@H]1CC[C@]2(C)O [Compound 3, 17β-hydroxy-17α-methyl-5α-androstan-3-one] | moderate inhibitory activity | moderate inhibitory activity | non-active | ND (Values could not be determined indicates <50% inhibition of cell growth at maximum dose (100 μM) tested.) | did not result in any significant effect | did not result in any significant effect | not able to inhibit considerable growth
